ChEMBL document CHEMBL3885861, “Open TG-GATES”

Organism: Rattus norvegicus
Experiment: Open TG-GATES - Regimen: Daily Repeat
Assay type: toxicity, organism-based, Sprague-Dawley
Design: regimen Daily Repeat, gender Male, age 6 weeks
Details: in vivo, po, 300 mg/kg, route gavage, dose level Middle; for APTT / Bas / Eos / Fbg / Hb / Ht / Lym / MCH / MCHC / MCV / Mono / Neu / PT / Plat / RBC / Ret / WBC: tissue Blood; for KIDNEY_L / KIDNEY_R / KIDNEY_TOTAL: tissue Kidney; for LIVER: tissue Liver; for A/G / ALP / ALT / AST / BUN / CRE / Ca / Cl / DBIL / GLC / IP / K / LDH / Na / PL / RALB / TBIL / TC / TG / TP / gamma-GTP: tissue Plasma

Compound: CN/C(=N/CCSCc1nc[nH]c1C)NC#N [CIMETIDINE]
- TERMINAL_BW (72 h, time 3 day): 228.5 g
- APTT (72 h, time 3 day): 18.9 s
- Bas (72 h, time 3 day): 0%
- Eos (72 h, time 3 day): 1%
- Fbg (72 h, time 3 day): 228.2 mg/dL
- Hb (72 h, time 3 day): 13.1 g/dL
- Ht (72 h, time 3 day): 39.2%
- Lym (72 h, time 3 day): 80%
- MCH (72 h, time 3 day): 21.3 pg
- MCHC (72 h, time 3 day): 33.6%
- MCV (72 h, time 3 day): 63.5 fL
- Mono (72 h, time 3 day): 2.6%
- Neu (72 h, time 3 day): 14.8%
- PT (72 h, time 3 day): 12.4 s
- Plat (72 h, time 3 day): 125.9 x10_4/uL
- RBC (72 h, time 3 day): 616.6 x10_4/ul
- Ret (72 h, time 3 day): 6%
- WBC (72 h, time 3 day): 104.1 x10_2/uL
- KIDNEY_L (72 h, time 3 day): 1 g
- KIDNEY_R (72 h, time 3 day): 1 g
- KIDNEY_TOTAL (72 h, time 3 day): 2 g
- LIVER (72 h, time 3 day): 11.4 g
- A/G (72 h, time 3 day): 1.6
- ALP (72 h, time 3 day): 1094.2 IU/L
- ALT (72 h, time 3 day): 37.6 IU/L
- AST (72 h, time 3 day): 67.2 IU/L
- BUN (72 h, time 3 day): 15.8 mg/dL
- CRE (72 h, time 3 day): 0.4 mg/dL
- Ca (72 h, time 3 day): 11.1 mg/dL
- Cl (72 h, time 3 day): 102.4 meq/L
- DBIL (72 h, time 3 day): 0.1 mg/dL
- GLC (72 h, time 3 day): 195 mg/dL
- IP (72 h, time 3 day): 7.2 mg/dL
- K (72 h, time 3 day): 4.1 meq/L
- LDH (72 h, time 3 day): 140.8 IU/L
- Na (72 h, time 3 day): 140.8 meq/L
- PL (72 h, time 3 day): 156.2 mg/dL
- RALB (72 h, time 3 day): 3.5 g/dL
- TBIL (72 h, time 3 day): 0.2 mg/dL
- TC (72 h, time 3 day): 79.2 mg/dL
- TG (72 h, time 3 day): 119.8 mg/dL
- TP (72 h, time 3 day): 5.7 g/dL
- gamma-GTP (72 h, time 3 day): 0.6 IU/L
- TERMINAL_BW ([…], time 7 day): 259.4 g
- TERMINAL_BW ([…], time 14 day): 317.5 g
- TERMINAL_BW ([…], time 28 day): 390.1 g
- APTT ([…], time 7 day): 19.2 s
- Bas ([…], time 7 day): 0%
- Eos ([…], time 7 day): 1%
- Fbg ([…], time 7 day): 222.6 mg/dL
- Hb ([…], time 7 day): 13.6 g/dL
- Ht ([…], time 7 day): 40.9%
- Lym ([…], time 7 day): 78.2%
- MCH ([…], time 7 day): 21 pg
- MCHC ([…], time 7 day): 33.1%
- MCV ([…], time 7 day): 63.2 fL
- Mono ([…], time 7 day): 2.6%
- Neu ([…], time 7 day): 16.6%
- PT ([…], time 7 day): 12.6 s
- Plat ([…], time 7 day): 127.8 x10_4/uL
- RBC ([…], time 7 day): 646.8 x10_4/ul
- Ret ([…], time 7 day): 5.3%
- WBC ([…], time 7 day): 107.7 x10_2/uL
- APTT ([…], time 14 day): 18.9 s
- Bas ([…], time 14 day): 0%
- Eos ([…], time 14 day): 1%
- Fbg ([…], time 14 day): 222.4 mg/dL
- Hb ([…], time 14 day): 14.2 g/dL
- Ht ([…], time 14 day): 42.9%
- Lym ([…], time 14 day): 80%
- MCH ([…], time 14 day): 20 pg
- MCHC ([…], time 14 day): 32.9%
- MCV ([…], time 14 day): 60.6 fL
- Mono ([…], time 14 day): 2.8%
- Neu ([…], time 14 day): 15.8%
- PT ([…], time 14 day): 12.7 s
- Plat ([…], time 14 day): 125.7 x10_4/uL
- RBC ([…], time 14 day): 709.6 x10_4/ul
- Ret ([…], time 14 day): 4.3%
- WBC ([…], time 14 day): 117.5 x10_2/uL
- APTT ([…], time 28 day): 18.7 s
- Bas ([…], time 28 day): 0%
- Eos ([…], time 28 day): 1%
- Fbg ([…], time 28 day): 225.2 mg/dL
- Hb ([…], time 28 day): 14.6 g/dL
- Ht ([…], time 28 day): 42.1%
- Lym ([…], time 28 day): 82.6%
- MCH ([…], time 28 day): 19.5 pg
- MCHC ([…], time 28 day): 34.6%
- MCV ([…], time 28 day): 56.3 fL
- Mono ([…], time 28 day): 2.2%
- Neu ([…], time 28 day): 13.2%
- PT ([…], time 28 day): 13 s
- Plat ([…], time 28 day): 108.2 x10_4/uL
- RBC ([…], time 28 day): 747.2 x10_4/ul
- Ret ([…], time 28 day): 2.5%
- WBC ([…], time 28 day): 140.1 x10_2/uL
- KIDNEY_L ([…], time 7 day): 1.1 g
- KIDNEY_R ([…], time 7 day): 1.1 g
- KIDNEY_TOTAL ([…], time 7 day): 2.2 g
- KIDNEY_L ([…], time 14 day): 1.2 g
- KIDNEY_R ([…], time 14 day): 1.2 g
- KIDNEY_TOTAL ([…], time 14 day): 2.4 g
- KIDNEY_L ([…], time 28 day): 1.4 g
- KIDNEY_R ([…], time 28 day): 1.4 g
- KIDNEY_TOTAL ([…], time 28 day): 2.8 g
- LIVER ([…], time 7 day): 12.3 g
- LIVER ([…], time 14 day): 14.6 g
- LIVER ([…], time 28 day): 16.3 g
- A/G ([…], time 7 day): 1.5
- ALP ([…], time 7 day): 951.8 IU/L
- ALT ([…], time 7 day): 32.2 IU/L
- AST ([…], time 7 day): 64.6 IU/L
- BUN ([…], time 7 day): 17.6 mg/dL
- CRE ([…], time 7 day): 0.4 mg/dL
- Ca ([…], time 7 day): 10.8 mg/dL
- Cl ([…], time 7 day): 102.4 meq/L
- DBIL ([…], time 7 day): 0.094 mg/dL
- GLC ([…], time 7 day): 234.6 mg/dL
- IP ([…], time 7 day): 7.6 mg/dL
- K ([…], time 7 day): 3.8 meq/L
- LDH ([…], time 7 day): 168 IU/L
- Na ([…], time 7 day): 141.4 meq/L
- PL ([…], time 7 day): 156.2 mg/dL
- RALB ([…], time 7 day): 3.4 g/dL
- TBIL ([…], time 7 day): 0.1 mg/dL
- TC ([…], time 7 day): 73.4 mg/dL
- TG ([…], time 7 day): 120 mg/dL
- TP ([…], time 7 day): 5.6 g/dL
- gamma-GTP ([…], time 7 day): 1.4 IU/L
- A/G ([…], time 14 day): 1.4
- ALP ([…], time 14 day): 1080.4 IU/L
- ALT ([…], time 14 day): 37.8 IU/L
- AST ([…], time 14 day): 65.8 IU/L
- BUN ([…], time 14 day): 19.2 mg/dL
- CRE ([…], time 14 day): 0.4 mg/dL
- Ca ([…], time 14 day): 10.5 mg/dL
- Cl ([…], time 14 day): 102 meq/L
- DBIL ([…], time 14 day): 0.1 mg/dL
- GLC ([…], time 14 day): 216.2 mg/dL
- IP ([…], time 14 day): 7.2 mg/dL
- K ([…], time 14 day): 3.9 meq/L
- LDH ([…], time 14 day): 176.4 IU/L
- Na ([…], time 14 day): 140.6 meq/L
- PL ([…], time 14 day): 164.2 mg/dL
- RALB ([…], time 14 day): 3.3 g/dL
- TBIL ([…], time 14 day): 0.2 mg/dL
- TC ([…], time 14 day): 77.6 mg/dL
- TG ([…], time 14 day): 129 mg/dL
- TP ([…], time 14 day): 5.8 g/dL
- gamma-GTP ([…], time 14 day): 1 IU/L
- A/G ([…], time 28 day): 1.3
- ALP ([…], time 28 day): 725.6 IU/L
- ALT ([…], time 28 day): 39.4 IU/L
- AST ([…], time 28 day): 67 IU/L
- BUN ([…], time 28 day): 18.6 mg/dL
- CRE ([…], time 28 day): 0.5 mg/dL
- Ca ([…], time 28 day): 10.1 mg/dL
- Cl ([…], time 28 day): 101.8 meq/L
- DBIL ([…], time 28 day): 0.1 mg/dL
- GLC ([…], time 28 day): 253 mg/dL
- IP ([…], time 28 day): 6.7 mg/dL
- K ([…], time 28 day): 3.4 meq/L
- LDH ([…], time 28 day): 183.8 IU/L
- Na ([…], time 28 day): 140.2 meq/L
- PL ([…], time 28 day): 148 mg/dL
- RALB ([…], time 28 day): 3.3 g/dL
- TBIL ([…], time 28 day): 0.2 mg/dL
- TC ([…], time 28 day): 70.6 mg/dL
- TG ([…], time 28 day): 128 mg/dL
- TP ([…], time 28 day): 5.8 g/dL
- gamma-GTP ([…], time 28 day): 1.2 IU/L
